Non-standard residues stand in square brackets, D forms with d. Residues, ends and D or L forms follow the SMILES beside them. Groups on a side chain read outwards from the residue. *: point of attachment. X3 = CC(C)CCC[C@@H](C)[C@H]1CCC2C3CC=C4C[C@@H](OC(=O)*)CC[C@]4(C)C3CC[C@@]21C; Benzenesulfonyl(4-OMe) = COc1ccc(S(=O)(=O)*)cc1; Phe(3-F) = N[C@@H](Cc1cccc(F)c1)C(=O)O; Ahx = NCCCCCC(=O)O
Experiments:
Assay type in all cases: cell-based
PDCD4 in MCF7 cells = experiment: In-cell western assay for PDCD4 accumulation
Procedure: In-Cell Western Assay for PDCD4 Accumulation.
To measure this an in-cell western assay was used and the peptidomimetics were delivered to the cells by nucleofection.
MCF7 cells were grown in 10 cm dishes in 10 ml DMEM+10% FBS and 1% Pen/Strep at 37° C./5% CO2. On the day of nucleofection, the dish was washed with 90% confluent MCF7 cells with 5 ml PBS, then 3 ml of Trypsin/EDTA was added and incubated at 37° C./5% CO2 for approximately 5 mins until the cells detached from the plastic. 7 ml of normal growth media was added and the number of cells present was counted using a haemocytometer.
The cells were centrifuged cells at 90 g for 10 mins at RT and the supernatant was removed. 100 μl of Nucleofection Buffer V+ Supplement was added (Lonza Biologics Cat no VCA-1003) per 8×10^5 cells, and the cells were added to peptidomimetics dissolved in <3% DMSO.
The cell/peptidomimetic mix was added to cuvettes supplied for the nucleofector and the sample was nucleofected using the recommended MCF7 programme for high cell viability (i.e. E-014). 500 μl of TPA (12-O-tetradecanoylphorbol-13-acetate)-supplemented growth media (i.e. DMEM/10% FBS/1% Pen-Strep/10 nM TPA) was added to the cuvette and 100 μl of this solution was transferred to a well of a 96 well plate and incubated at 37° C./5% CO2 for 8 hours.
The celled were fixed by removing the growth media, adding 3.7% Formaldehyde in PBS and incubating at RT for 20 mins. The plate was washed three times in PBS. And the cells were permeabilised by washing 5× for 5 mins each in PBS+0.1% Triton X-100.
The cells were blocked by adding 3% BSA in PBS-Tween to the cells and incubating at RT for 1.5 hours. An anti-PDCD4 antibody (Abcam cat no: ab80590) was added at a concentration of 1:1000 in 3% BSA in PBS-T (50 ul/well) and incubated at RT for 2.5 hours. The cells were washed 5× for 5 mins each with PBS-T before the secondary antibody (LiCor Biosciences Donkey Anti-Rabbit IRDye 800CW cat no 926-32213) was added at a concentration of 1:1000, along with the DNA stain DRAQ5 at a concentration of 1:10000, in 3% BSA in PBS-T (50 ul/well) and incubated at RT for 1 hour, protected from light.
The cells were washed cells 5× for 5 mins each with PBS-T and all the liquid was removed from the wells before the plate was read on the LiCor Biosciences Odyssey at 700 nm and 800 nm. The reading was normalised in the 800 nm channel to that in the 700 nm channel. The data are shown in FIG. 12, where DMSO was used as a negative control and 20 μM MG132 was used as a positive control. The data is presented as percentage activity with DMSO=0% and […]=100% activity. Error bars represent standard deviation from 3 replicates.
The compounds shown in FIGS. 14A-14B were synthesised to improve cell permeability. […] FIG. 16 compares the round II compounds (shown in FIGS. 14A-14B) with UBP036 in this assay. […] Inhibition of βTrCP, which is responsible for the degradation of both PDCD4 and β-catenin, causes a concomitant stabilisation and accumulation of levels of these proteins which can be measured by in cell western assay.

MCF7:GFP-PDCD4^WT = experiment: Fluorescence reporter assay for PDCD4 accumulation, wild type
Procedure: (§1) Fluorescence Reporter Assay for PDCD4 Accumulation
(§2) This assay uses two stable cell lines expressing PDCD4 fused to a GFP tag.
(§3) The two stable cell lines MCF7:GFP-PDCD4^WT and MCF7:GFP-PDCD4^S71A/S76Awere grown in 10 ml DMEM+10% FBS and 1% Pen/Strep supplemented with 2 mg/ml Geneticin at 37° C./5% CO2. These cell lines were nucleofected as described above except for the additional supplementation of all media with 2 mg/ml Geneticin.
(§4) Fluorescent Reporter Assay
(§5) The cells were fixed by removing the growth media and adding 3.7% Formaldehyde in PBS to the cells. The cells were then incubated at RT for 20 mins and the plates washed 3× in PBS.
(§6) DRAQ5 DNA stain was added to the cells in PBS at a concentration of 1:10000 and incubated at RT for 1 hour protecting from light. The plate was washed 3× in PBS and read on the Perkin Elmer OPERA platform using the nuclei counting algorithm F in both the 488 nm channel (GFP) and 640 nm channel (DRAQ5). DMSO was used as a negative control and 10 μM MG132 was used as a positive control. Error bars represent standard deviation from 6 replicates. The data are expressed as percentage activity with DMSO (WT)=0% and 10 μM MG132 (WT)=100% activity.
(§7) This confirms that the stabilisation resulting from the compounds is dependent on the βTrCP/PDCD4 interaction and is not due to another mechanism such as a global increase in protein production.

MCF7:GFP-PDCD4^S71A/S76A = experiment: Fluorescence reporter assay for PDCD4 accumulation, mutant; details: PDCD4 mutated to eliminate PDCD4-βTrCP interaction
Procedure: as §1, §2, §3, §4, §5, §6, §7

LNCaP (prostate cancer) = experiment: xCELLigence cell viability / proliferation, LNCaP
Procedure: Example 9—Cell Based Activity of Cell Permeable Compounds on the xCELLigence Platform
The effects of the compounds shown in FIGS. 14A-14B were tested on cancer cell lines MCF7 (breast cancer) and LNCaP (prostate cancer) using the xCELLigence platform (http://www.roche-applied-science.com/sis/xcelligence/ezhome.html). This method of measuring cell viability via measuring cell index is known in the art.
Different doses of the compounds were tested on MCF7 cells to see if there would be an effect on their cell viability.
The control compound was compared to its partner active compound (UBP037).
(§8) xCELLigence Method • Before starting the experiment add 50 μL of medium (RPMI 1640, 10% fetal bovine serum, 100 units/mL penicillin, 100 ug/mL streptomycin, and 2 mmol/L glutamine, all from GIBCO) to each well of 96 well E-plate (Roche) and place the plate in the xCELLigence platform to measure the background. • LNCaP/PNT-1 cells are seeded (LNCaPs 80000 cells/well; PNT1 3000 cells/well) in the plate in complete medium and equilibrated for 60 mins at RT before returning to the xCELLigence platform and incubating at 37° C./5% CO2. • 24 hrs after seeding, remove 100 μL of medium was removed from each well and cells were treated with compounds or DMSO diluted in 100 μL of OptiMEM (GIBCO). • Replace the plate in the xCELLigence platform • Cells growth can then be monitored in real-time by the cell index profile on the xCELLigence readout screen • Cell growth can be expressed as normalized cell index and doubling time/slope calculated using the RTCA software.

PNT-1 cell line = experiment: xCELLigence cell growth, non-malignant PNT-1
Procedure: as §8
The susceptibility of cancer cell lines versus non-cancer cell lines following treatment with the compounds was also investigated.

In the case of `COc1ccc(S(=O)(=O)N[C@H](CC(=O)O)C(=O)N[C@@H](CCC(=O)O)C(=O)NCC(=O)N[C@@H](Cc2cccc(F)c2)C(=O)N[C@@H](Cc2c[nH]c3ccccc23)C(=O)N[C@@H](CCC(=O)O)C(=O)NCCCCCC(=O)N[C@@H](CCCCNC(=O)CCCCCNC(=O)O[C@H]2CC[C@@]3(C)C(=CCC4C3CC[C@@]3(C)C4CC[C@@H]3[C@H](C)CCCC(C)C)C2)C(N)=O)cc1` (stereo partly drawn) [UBP036, 4-(MeO)PhSO2-dEGF(3F)WE-Ahx-K(Ahx-Chol)-NH2] ({Benzenesulfonyl(4-OMe)}-[dD]EG[Phe(3-F)]WE[Ahx]K([Ahx-X3])-NH2), the “accumulation of PDCD4, in cell western” value (PDCD4 in MCF7 cells; MCF7, treatment with cell permeable compound) is reported as “accumulation of PDCD4”, the cell based activity (PDCD4 in MCF7 cells; general statement, different delivery vehicles) is reported as “display cell based activity” and the “accumulation of GFP-PDCD4, fluorescent reporter assay” value (MCF7:GFP-PDCD4^WT) is reported as “GFP-PDCD4 accumulation”. The “accumulation of GFP-PDCD4 Mut, fluorescent reporter assay” value (MCF7:GFP-PDCD4^S71A/S76A) was “no accumulation of PDCD4”, the “cell growth / proliferation, xCELLigence” value (LNCaP (prostate cancer)) was “inhibit the growth” and the “cell growth, xCELLigence” value (PNT-1 cell line) was “far less effect”.

Reference: patent publication US20190106460A1, “BINDING INHIBITORS OF THE BETA. TRANSDUCIN REPEAT-CONTAINING PROTEIN” (priority 2011, published 2019)
